Experiments:
[1] = molecular target: T1, first bromodomain (BrD1) of human BRD4 (Homo sapiens, UniProt O60885); experiment: Fluorescence anisotropy binding assay (competition with FITC-labeled MS417 probe); details: FITC-MS417 probe 80 nM, PBS pH 7.4, 1 hour, 25° C., read-out: BRD4_1 IC50
T1 construct: the first bromodomain (BrD1) of human BRD4; poly-His (cleaved yes); made in house
In short: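 Competitive fluorescence anisotropy in PBS pH 7.4: 80 nM FITC-MS417 probe, 0.25 to 1 μM tag-cleaved BrD1, titrated unlabeled ligand, 1 hour at 25° C. IC50 values were fitted and converted to Ki using a corrected Cheng-Prusoff equation assuming one-site competition.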

[2] = molecular target: T2, BRD4_2 (Homo sapiens, UniProt O60885); experiment: Fluorescence anisotropy binding assay (competition with FITC-labeled MS417 probe), BRD4_2; details: FITC-MS417 probe 80 nM, PBS pH 7.4, 1 hour, 25° C.
T2 construct: contains two tandem bromodomains (BrD1 and BrD2)

Row | IC50 [1] [nM] | melting point | IC50 [2] [nM] | SMILES
1 | < 1000 | 254 to 257 °C | > 10000 | COc1ccc(C(=O)Nc2ccc(Cl)c(NC3=C(C)C(=O)CC3)c2)cc1 [Example 05-37, N-(4-chloro-3-((2-methyl-3-oxocyclopent-1-en-1-yl)amino)phenyl)-4-methoxybenzamide]
2 | > 10000 | 213 to 216 °C | > 10000 | CC1=C(Nc2ccc(C(=O)O)c(C)c2)CCC1=O [Example 01-16, 2-methyl-4-((2-methyl-3-oxocyclopent-1-en-1-yl)amino)benzoic acid]
3 | 1000 to 10000 | 213 to 215 °C | 1000 to 10000 | CC1=C(Nc2cc(NS(C)(=O)=O)ccc2Cl)CCC1=O [Example 05-53, N-(4-chloro-3-((2-methyl-3-oxocyclopent-1-en-1-yl)amino)-phenyl)-methanesulfonamide]
4 | > 10000 | 239 to 241 °C | > 10000 | CC1=C(Nc2ccc(C(=O)O)c(Cl)c2)CCC1=O [Example 01-10, 2-chloro-4((2-methyl-3-oxocyclopent-1-en-1-yl)amino)benzoic acid]
5 | 1000 to 10000 | 182 to 185 °C | > 10000 | CC1=C(Nc2cc(NC(=O)/C=C\C(=O)O)ccc2Cl)CCCC1=O [Example 05-83, (Z)-4-((4-chloro-3-((2-methyl-3-oxocyclohex-1-en-1-yl)amino)phenyl)-amino)-4-oxobut-2-enoic acid]
6 | < 1000 | 196 to 198 °C | < 1000 | CC1=C(Nc2cc(NS(=O)(=O)Cc3ccccc3)ccc2Cl)CCC1=O [Example 05-54, N-(4-chloro-3-((2-methyl-3-oxocyclopent-1-en-1-yl)amino)phenyl)-1-phenylmethanesulfonamide]
7 | 1000 to 10000 | 113 to 115 °C | > 10000 | CC1=C(Nc2ncccc2Cl)CCCC1=O [Example 01-49, 3-[(3-chloropyridin-2-yl)amino]-2-methylcyclohex-2-en-1-one]
8 | < 1000 | 265 to 268 °C | 1000 to 10000 | CC(=O)Nc1ccc(Cl)c(NC2=C(C)C(=O)CC2)c1 [Example 01-42, N-(4-chloro-3-((2-methyl-3-oxocyclopent-1-en-1-yl)amino)phenyl)-acetamide]
9 | < 1000 | 160 to 162 °C | 1000 to 10000 | CC1=C(Nc2cc(NCc3cccc(F)c3C)ccc2Cl)CCCC1=O [Example 05-75, 3-((2-chloro-5-((3-fluoro-2-methylbenzyl)amino)phenyl)amino)-2-methylcyclohex-2-enone]
10 | > 10000 | 190 to 195 °C | > 10000 | COc1ccc(C(=O)Nc2ccc(Cl)c(NC3=C(C)C(=O)CCC3)c2)cc1 [Example 05-43, N-(4-chloro-3-((2-methyl-3-oxocyclohex-1-en-1-yl)amino)phenyl)-4-methoxybenzamide]
11 | < 1000 | 132 to 135 °C | 1000 to 10000 | CC1=C(Nc2cccc(NCc3ccccc3C)c2Cl)CCCC1=O [Example 05-78, 3-((2-chloro-3-((2-methylbenzyl)amino)phenyl)amino)-2-methylcyclohex-2-enone]
12 | 1000 to 10000 | 193 to 196 °C | 1000 to 10000 | COC(=O)c1ccc(NC2=C(C)C(=O)CC2)cc1OC [Example 01-13, methyl 2-methoxy-4-((2-methyl-3-oxocyclopent-1-en-1-yl)amino)benzoate]
13 | < 1000 | 249 to 250 °C (dec.) | 1000 to 10000 | CC1=C(Nc2cc(C(=O)Nc3ccccc3C)c3ccccc3c2)CCCC1=O [Example 04-106, 3-((2-methyl-3-oxocyclohex-1-en-1-yl)amino)-N-(o-tolyl)-1-naphthamide]
14 | < 1000 | 245 to 247 °C | 1000 to 10000 | CC1=C(Nc2ccc(NC(=O)c3cccc4ccccc34)cc2Cl)CCCC1=O [Example 05-47, N-(3-chloro-4-((2-methyl-3-oxocyclohex-1-en-1-yl)amino)phenyl)-1-naphthamide]
15 | < 1000 | 215 to 217 °C | < 1000 | CC1=C(Nc2cc(NS(=O)(=O)C3CCCCC3)ccc2Cl)CCCC1=O [Example 05-67, N-(4-chloro-3-((2-methyl-3-oxocyclohex-1-en-1-yl)amino)phenyl)-cyclohexanesulfonamide]
16 | < 1000 | 240 to 242 °C | 1000 to 10000 | CC1=C(Nc2cc(NC(=O)C3CCCCC3)ccc2Cl)CCC1=O [Example 05-39, N-(4-chloro-3-[(2-methyl-3-oxocyclopent-1-en-1-yl)amino]phenyl)-cyclohexanecarboxamide]
17 | < 1000 | 234 to 236 °C | 1000 to 10000 | CC1=C(Nc2ccc(NC(=O)c3ccccc3C)cc2Cl)CCCC1=O [Example 05-48, N-(3-chloro-4-((2-methyl-3-oxocyclohex-1-en-1-yl)amino)phenyl)-2-methylbenzamide]
18 | 1000 to 10000 | 270 to 272 °C | 1000 to 10000 | CC1=C(Nc2cc(C(=O)O)c3ccccc3c2)CCCC1=O [Example 01-52, 3-[(2-methyl-3-oxocyclohex-1-en-1-yl)amino]naphthalene-1-carboxylic acid]
19 | < 1000 | 310 to 315 °C | 1000 to 10000 | CC1=C(Nc2ccc3[nH]c(C(=O)O)cc3c2)CCCC1=O [Example 01-64]
20 | < 1000 | 245 to 247 °C | 1000 to 10000 | CC1=C(Nc2cc(NC(=O)c3cccc4ccccc34)ccc2Cl)CCCC1=O [Example 05-46, N-(4-chloro-3-((2-methyl-3-oxocyclohex-1-en-1-yl)amino)phenyl)-1-naphthamide]
21 | < 1000 | 192 to 195 °C | 1000 to 10000 | CC1=C(Nc2cc(NC(=O)C3CCCCC3)ccc2Cl)CCCC1=O [Example 05-45, N-(4-chloro-3-((2-methyl-3-oxocyclohex-1-en-1-yl)amino)phenyl)-cyclohexanecarboxamide]
22 | < 1000 | 230 to 232 °C | < 1000 | CC1=C(Nc2cc(NC(=O)c3ccccc3C)ccc2Cl)CCC1=O [Example 05-38, N-(4-chloro-3-((2-methyl-3-oxocyclopent-1-en-1-yl)amino)phenyl)-2-methylbenzamide]
23 | < 1000 | 165 to 168 °C | 1000 to 10000 | CC1=C(Nc2cc(Nc3ccccc3C)ccc2Cl)CCCC1=O [Example 05-81, 3-((2-chloro-5-(o-tolylamino)phenyl)amino)-2-methylcyclohex-2-enone]
24 | < 1000 | 158 to 160 °C | < 1000 | CC1=C(Nc2cc(NCc3ccccc3C)ccc2Cl)CCCC1=O [Example 05-72, 3-((2-chloro-5-((2-methylbenzyl)amino)phenyl)amino)-2-methylcyclohex-2-enone]
25 | 1000 to 10000 | 198 to 201 °C | > 10000 | COC(=O)c1ccc(NC2=C(C)C(=O)CC2)c(F)c1 [Example 01-21, methyl 3-fluoro-4((2-methyl-3-oxocyclopent-1-en-1-yl)amino)benzoate]

From patent US9884806B2, “Cyclic vinylogous amides as bromodomain inhibitors” (ICAHN SCHOOL OF MEDICINE AT MOUNT SINAI, priority 2013, dated 2018)
